From US20100173832A1, “ANTICANCEROUS POLYMERIC AGENTS” (TECHNION RESEARCH & DEVELOPMENT FOUNDATION LTD., priority 2007, published 2010)
Read-outs that look alike come from different tables or passages of the source. Non-standard residues stand in square brackets, D forms with d. Residues, ends and D or L forms follow the SMILES beside them. *: point of attachment. Lauroyl = CCCCCCCCCCCC(=O)*; 12Ado = NCCCCCCCCCCCC(=O)O; Octanoyl = CCCCCCCC(=O)*; Aoc = NCCCCCCCC(=O)O

Legend:
[1] = XTT cell viability assay, non-cancerous cardiac fibroblasts (CF); format: cell-based, rat
Source text: Primary non-cancerous rat cardiac fibroblasts (CF);
(§1) As a routine cancer cell killing assay for assessment of antitumor activity, 2,3-bis(2-methoxy-4-nitro-5-sulfophenyl)-2H-tetrazolium-5-carboxanilide inner salt (XTT) reduction assay was used, utilizing a commercial kit such as, for example, Cell Proliferation XTT Kit, Cat. No. 20-300-1000, Biological Industries Ltd., Kibbutz Beit Haemek, Israel. XTT is a tetrazolium salt which is cleaved to formazan colored compounds by the mitochondrial dehydrogenase enzymes indicating proper mitochondrial activity in intact cells.
(§2) Thereafter, a series of increasing concentrations of the polymers were added. After another 24 hours of incubation, XTT reaction solution was added (50 μl of XTT per 100 μl of cell culture medium). The optical density of the cells was measured at 450 nm by ELISA plate reader after 2-4 hours XTT incubation. Cell viability was determined relative to a control having no polymer added thereto.
“Rat primary cardiac fibroblast CF” represents the lethal concentration in μM as measured against CF cell line, measured as described hereinabove in the cell proliferation XTT assay (column 8 in Table 3);

[2] = test system: TRAMP-C2 cell line; format: cell-based; conditions: 24 hours incubation, XTT; read-out: Cancer LC50 Mouse prostate cancer TRAMP-C2
Source text: Transgenic adenocarcinoma mouse prostate cells (TRAMP-C2);
as §1, §2
“Mouse prostate cancer TRAMP-C2” represents the lethal concentration in μM as measured against TRAMP-C2 cell line, measured as described hereinabove in the cell proliferation XTT assay (column 5 in Table 3);

[3] = test system: N-417 cell line; experiment: XTT cell viability assay, N-417 cells; format: cell-based; conditions: 24 hours incubation, XTT; read-out: Cancer LC50 Human small-cell lung carcinoma N-417
Source text: Variant small cell lung cancer cells (N-417, SCLC);
as §1, §2
“Human breast cancer MCF-7” represents the lethal concentration in μM as measured against MCF-7 cell line, measured as described hereinabove in the cell proliferation XTT assay (column 6 in Table 3); “Human small-cell lung carcinoma N-417” represents the lethal concentration in μM as measured against N-417 cell line, measured as described hereinabove in the cell proliferation XTT assay (column 7 in Table 3);

[4] = test system: MCF-7 cell line; format: cell-based; conditions: 24 hours incubation, XTT; read-out: Cancer LC50 Human breast cancer MCF-7
Experimental: Human breast adenocarcinoma cells (MCF-7);
Thereafter, a series of increasing concentrations of the polymers were added. […] The optical density of the cells was measured at 450 nm by ELISA plate reader after 2-4 hours XTT incubation. Cell viability was determined relative to a control having no polymer added thereto.

[5] = primary cardiac fibroblasts (CF), primary non-cancerous rat cardiac fibroblasts, XTT assay, read-out: CF lethal concentration

| SMILES | CC50 at 24 h [1, 5] [µM] | other results |
| --- | --- | --- |
| NCCCCCCCCCCCC(=O)N[C@@H](CCCCN)C(=O)NCCCCCCCCCCCC(=O)N[C@@H](CCCCN)C(N)=O [(NC12K)2NH2] | > 16 |  |
| NCCCCCCCCCCCC(=O)N[C@@H](CCCCN)C(=O)NCCCCCCCCCCCC(=O)N[C@@H](CCCCN)C(=O)O [(NC12K)2] | > 16 |  |
| NCCCCCCCCCCCC(=O)N[C@@H](CCCCN)C(=O)NCCCCCCCCCCCC(=O)N[C@@H](CCCCN)C(=O)NCCCCCCCCCCCC(=O)N[C@@H](CCCCN)C(N)=O [(NC12K)3NH2] | > 16 |  |
| NCCCCCCCCCCCC(=O)N[C@@H](CCCCN)C(=O)NCCCCCCCCCCCC(=O)N[C@@H](CCCCN)C(=O)NCCCCCCCCCCCC(=O)N[C@@H](CCCCN)C(=O)O [(NC12K)3] | > 16 |  |
| NCCCCCCCCCCCC(=O)N[C@@H](CCCCN)C(=O)NCCCCCCCCCCCC(=O)N[C@@H](CCCCN)C(=O)NCCCCCCCCCCCC(=O)N[C@@H](CCCCN)C(=O)NCCCCCCCCCCCC(=O)N[C@@H](CCCCN)C(=O)O [(NC12K)4] | > 16 |  |
| NCCCCCCCCCCCC(=O)N[C@@H](CCCCN)C(=O)NCCCCCCCCCCCC(=O)N[C@@H](CCCCN)C(=O)NCCCCCCCCCCCC(=O)N[C@@H](CCCCN)C(=O)NCCCCCCCCCCCC(=O)N[C@@H](CCCCN)C(=O)NCCCCCCCCCCCC(=O)N[C@@H](CCCCN)C(N)=O [(NC12K)5NH2] | > 16 |  |
| NCCCCCCCCCCCC(=O)N[C@@H](CCCCN)C(=O)NCCCCCCCCCCCC(=O)N[C@@H](CCCCN)C(=O)NCCCCCCCCCCCC(=O)N[C@@H](CCCCN)C(=O)NCCCCCCCCCCCC(=O)N[C@@H](CCCCN)C(=O)NCCCCCCCCCCCC(=O)N[C@@H](CCCCN)C(=O)NCCCCCCCCCCCC(=O)N[C@@H](CCCCN)C(N)=O [(NC12K)6NH2] | > 16 |  |
| NCCCCCCCCCCCC(=O)N[C@@H](CCCCN)C(=O)NCCCCCCCCCCCC(=O)N[C@@H](CCCCN)C(=O)NCCCCCCCCCCCC(=O)N[C@@H](CCCCN)C(=O)NCCCCCCCCCCCC(=O)N[C@@H](CCCCN)C(=O)NCCCCCCCCCCCC(=O)N[C@@H](CCCCN)C(=O)NCCCCCCCCCCCC(=O)N[C@@H](CCCCN)C(=O)NCCCCCCCCCCCC(=O)N[C@@H](CCCCN)C(N)=O [(NC12K)7NH2] | > 16 |  |
| NCCCCCCCCCCCC(=O)N[C@@H](CCCCN)C(=O)NCCCCCCCCCCCC(=O)N[C@@H](CCCCN)C(=O)NCCCCCCCCCCCC(=O)N[C@@H](CCCCN)C(=O)NCCCCCCCCCCCC(=O)N[C@@H](CCCCN)C(=O)NCCCCCCCCCCCC(=O)N[C@@H](CCCCN)C(=O)NCCCCCCCCCCCC(=O)N[C@@H](CCCCN)C(=O)NCCCCCCCCCCCC(=O)N[C@@H](CCCCN)C(=O)NCCCCCCCCCCCC(=O)N[C@@H](CCCCN)C(N)=O [(NC12K)8NH2] | > 16 |  |
| CCCCCCCC(=O)N[C@@H](CCCCN)C(=O)NCCCCCCCCCCCC(=O)N[C@@H](CCCCN)C(=O)N[C@@H](CCCCN)C(=O)NCCCCCCCCCCCC(=O)N[C@@H](CCCCN)C(N)=O [C8(KNC12K)2NH2] (Octanoyl-K[12Ado]KK[12Ado]K-NH2) |  | CC50 [2]: > 8 µM; CC50 [3]: > 16 µM; CC50 at 24 h ([1]; rat, primary non-cancerous cardiac fibroblasts (CF), 24 hours incubation, XTT, non-cancerous cells, read-out: Cancer LC50 Rat primary cardiac fibroblast CF): > 16 µM; CC50 [4]: > 16 µM |
| CCCCCCCCCCCC(=O)N[C@@H](CCCCN)C(=O)NCCCCCCCC(=O)N[C@@H](CCCCN)C(=O)N[C@@H](CCCCN)C(=O)NCCCCCCCC(=O)N[C@@H](CCCCN)C(N)=O [C12(KNC8K)2NH2] (Lauroyl-K[Aoc]KK[Aoc]K-NH2) | < 16 |  |
| CCCCCCCCCCCC(=O)N[C@@H](CCCCN)C(=O)NCCCCCCCC(=O)N[C@@H](CCCCN)C(=O)N[C@@H](CCCCN)C(=O)NCCCCCCCC(=O)N[C@@H](CCCCN)C(=O)N[C@@H](CCCCN)C(=O)NCCCCCCCC(=O)N[C@@H](CCCCN)C(N)=O [C12(KNC8K)3NH2] (Lauroyl-K[Aoc]KK[Aoc]KK[Aoc]K-NH2) | < 16 |  |
| CCCCCCCCCCCC(=O)N[C@@H](CCCCN)C(=O)NCCCCCCCC(=O)N[C@@H](CCCCN)C(=O)N[C@@H](CCCCN)C(=O)NCCCCCCCC(=O)N[C@@H](CCCCN)C(=O)N[C@@H](CCCCN)C(=O)NCCCCCCCC(=O)N[C@@H](CCCCN)C(=O)N[C@@H](CCCCN)C(=O)NCCCCCCCC(=O)N[C@@H](CCCCN)C(N)=O [C12(KNC8K)4NH2] (Lauroyl-K[Aoc]KK[Aoc]KK[Aoc]KK[Aoc]K-NH2) | < 16 |  |
| CCCCCCCCCCCC(=O)N[C@@H](CCCCN)C(=O)NCCCCCCCC(=O)N[C@@H](CCCCN)C(N)=O [C12(KNC8K)NH2] | < 16 |  |
| CCCCCCCCCCCC(=O)N[C@@H](CCCCN)C(=O)NCCCCCCCCCCCC(=O)N[C@@H](CCCCN)C(=O)NCCCCCCCCCCCC(=O)N[C@@H](CCCCN)C(N)=O [C12K(NC12K)2NH2] | > 16 |  |
| CCCCCCCCCCCC(=O)N[C@@H](CCCCN)C(=O)NCCCCCCCCCCCC(=O)N[C@@H](CCCCN)C(=O)NCCCCCCCCCCCC(=O)N[C@@H](CCCCN)C(=O)O [C12K(NC12K)2] | > 16 |  |

| SMILES | CC50 at 24 h [1, 5] [µM] | other results |
| --- | --- | --- |
| CCCCCCCCCCCC(=O)N[C@@H](CCCCN)C(=O)NCCCCCCCCCCCC(=O)N[C@@H](CCCCN)C(=O)NCCCCCCCCCCCC(=O)N[C@@H](CCCCN)C(=O)NCCCCCCCCCCCC(=O)N[C@@H](CCCCN)C(N)=O [C12K(NC12K)3NH2] | > 16 |  |
| CCCCCCCCCCCC(=O)N[C@@H](CCCCN)C(=O)NCCCCCCCCCCCC(=O)N[C@@H](CCCCN)C(=O)NCCCCCCCCCCCC(=O)N[C@@H](CCCCN)C(=O)NCCCCCCCCCCCC(=O)N[C@@H](CCCCN)C(=O)O [C12K(NC12K)3] | > 16 |  |
| CCCCCCCCCCCC(=O)N[C@@H](CCCCN)C(=O)NCCCCCCCCCCCC(=O)N[C@@H](CCCCN)C(=O)NCCCCCCCCCCCC(=O)N[C@@H](CCCCN)C(=O)NCCCCCCCCCCCC(=O)N[C@@H](CCCCN)C(=O)NCCCCCCCCCCCC(=O)N[C@@H](CCCCN)C(N)=O [C12K(NC12K)4NH2] | 37 ± 2.12 |  |
| CCCCCCCCCCCC(=O)N[C@@H](CCCCN)C(=O)NCCCCCCCCCCCC(=O)N[C@@H](CCCCN)C(N)=O [C12KNC12KNH2] | > 16 |  |
| CCCCCCCCCCCC(=O)N[C@@H](CCCCN)C(=O)NCCCCCCCCCCCC(=O)N[C@@H](CCCCN)C(=O)O [C12KNC12K] | > 16 |  |
| NCCCC[C@H](NC(=O)CCCCCCCCCCCNC(=O)[C@H](CCCCN)NC(=O)CCCCCCCCCCCNC(=O)[C@@H](N)CCCCN)C(N)=O [K(NC12K)2NH2] | > 16 |  |
| NCCCC[C@H](NC(=O)CCCCCCCCCCCNC(=O)[C@H](CCCCN)NC(=O)CCCCCCCCCCCNC(=O)[C@@H](N)CCCCN)C(=O)O [K(NC12K)2] | > 16 |  |
| NCCCC[C@H](NC(=O)CCCCCCCCCCCNC(=O)[C@H](CCCCN)NC(=O)CCCCCCCCCCCNC(=O)[C@H](CCCCN)NC(=O)CCCCCCCCCCCNC(=O)[C@@H](N)CCCCN)C(N)=O [K(NC12K)3NH2] | > 16 |  |
| NCCCC[C@H](NC(=O)CCCCCCCCCCCNC(=O)[C@H](CCCCN)NC(=O)CCCCCCCCCCCNC(=O)[C@H](CCCCN)NC(=O)CCCCCCCCCCCNC(=O)[C@@H](N)CCCCN)C(=O)O [K(NC12K)3] | > 16 |  |
| NCCCC[C@H](NC(=O)CCCCCCCCCCCNC(=O)[C@H](CCCCN)NC(=O)CCCCCCCCCCCNC(=O)[C@H](CCCCN)NC(=O)CCCCCCCCCCCNC(=O)[C@H](CCCCN)NC(=O)CCCCCCCCCCCNC(=O)[C@@H](N)CCCCN)C(N)=O [K(NC12K)4NH2] | 50 |  |
| NCCCC[C@H](NC(=O)CCCCCCCCCCCNC(=O)[C@H](CCCCN)NC(=O)CCCCCCCCCCCNC(=O)[C@H](CCCCN)NC(=O)CCCCCCCCCCCNC(=O)[C@H](CCCCN)NC(=O)CCCCCCCCCCCNC(=O)[C@H](CCCCN)NC(=O)CCCCCCCCCCCNC(=O)[C@@H](N)CCCCN)C(N)=O [K(NC12K)5NH2] | > 16 |  |
| NCCCC[C@H](NC(=O)CCCCCCCCCCCNC(=O)[C@H](CCCCN)NC(=O)CCCCCCCCCCCNC(=O)[C@H](CCCCN)NC(=O)CCCCCCCCCCCNC(=O)[C@H](CCCCN)NC(=O)CCCCCCCCCCCNC(=O)[C@H](CCCCN)NC(=O)CCCCCCCCCCCNC(=O)[C@H](CCCCN)NC(=O)CCCCCCCCCCCNC(=O)[C@@H](N)CCCCN)C(N)=O [K(NC12K)6NH2] | > 16 |  |
| NCCCC[C@H](NC(=O)CCCCCCCCCCCNC(=O)[C@H](CCCCN)NC(=O)CCCCCCCCCCCNC(=O)[C@H](CCCCN)NC(=O)CCCCCCCCCCCNC(=O)[C@H](CCCCN)NC(=O)CCCCCCCCCCCNC(=O)[C@H](CCCCN)NC(=O)CCCCCCCCCCCNC(=O)[C@H](CCCCN)NC(=O)CCCCCCCCCCCNC(=O)[C@H](CCCCN)NC(=O)CCCCCCCCCCCNC(=O)[C@@H](N)CCCCN)C(N)=O [K(NC12K)7NH2] | > 16 |  |
| NCCCC[C@H](NC(=O)CCCCCCCCCCCNC(=O)[C@@H](N)CCCCN)C(N)=O [KNC12KNH2] | > 16 |  |
| NCCCC[C@H](NC(=O)CCCCCCCCCCCNC(=O)[C@@H](N)CCCCN)C(=O)O [KNC12K] | > 16 |  |
